# Assay results published in patent US20220168391A1, “USE OF EPIDERMAL GROWTH FACTOR IN DIABETIC FOOT ULCER TREATMENT” (Centro de Ingeniería Genética y Biotecnología, priority 2019, published 2022).
# How the values were obtained:
# [1] = Example 2: pharmacokinetic study, rhEGF levels in plasma of DFU patients after intralesional administration (ELISA); type: in vivo, human; details: for Amount of rhEGF remaining in the area of the ulcer: bioavailability analysis; for AUC / t½: intralesional, plasma, immediately after the first administration
# Experimental: A pharmacokinetic study was carried out, starting from blood samples taken from 31 patients. […] The most important parameters evaluated were the ‘Area under the Curve’ (AUC) and the half-life time (t½) among others. […] The treatment was performed for 8 weeks, or less time if the ulcer area reached a measure equal or less than 1 cm^2.
# For the quantitation of this growth factor, the instructions of the kit manufacturer were followed.
# DFU = details: approved lyophilized medicament, intralesional; highest reduction in less complicated ulcers; cited from earlier work
# patients with DFU [2] = assay: Example 5: case reports, injectable rhEGF once a week in DFU patients with no criteria for amputation; type: in vivo, human; details: 75 μg once a week for two weeks
# From the text: The size of the lesion, after debridement, was 10 cm^2.
# The ulcer base was covered with more than 75% of useful granulation tissue. The ulcer size was 7 cm^2.
# [3] = system: DFU patients with no amputation criteria of the limb; assay: Example 4: healing of DFU after intralesional rhEGF once a week plus conventional therapy; type: in vivo, human
# Experimental: The intralesional treatment with this growth factor was performed once a week, for 8 weeks, or for less time, if the lesion closed up to a dimension equal to or less than 1 cm^2. Another group of patients received conventional therapy only, with the difference that the procedure was performed three times a week, until the complete closure of the lesion was achieved.
# The patients in these series had no amputation criteria of the limb affected by the DFU at the time of the initial evaluation. […] As mentioned before, conventional therapy in all patients was performed according to the standards of treatment for DFU established by the National Angiology Group of Cuba.
# [4] = system: patients of DFU with amputation criteria of the affected limb; assay: Example 3: healing of DFU after intralesional rhEGF at different doses, three times a week then once a week, versus three times a week control; type: in vivo, human; details: for Closure of the lesion (%) / Closure of the lesion, number of patients: three times a week then once a week, during follow-up; for Complete granulation response (%) / Complete granulation response, number of patients: at 8 weeks
# Experimental: The route of administration was always the intralesional one. […] The doses administered per group were 2.5 μg, 25 μg, 50 μg and 75 μg. Seven patients were incorporated into the group that received 2.5 μg, 10 patients to the group that received the 25 μg dose; 13 patients to the group that received 50 μg and 18 patients in the group of 75 μg.
# On the other hand, there was a group of 93 patients who were treated, during the whole period, with the dose of 75 μg three times a week. The period of treatment was 8 weeks.
# Patients in all groups continued receiving the conventional therapy, which was performed according to the DFU standard treatment established by the National Angiology Group of Cuba, as summarized in Example 1.
# patients with DFU [5] = assay: Example 1: intralesional rhEGF in three treatment regimes, granulation, lesion closure and amputations in DFU patients; type: in vivo, human
# Experimental: To do so, the reconstitution and dilution of the vial containing the drug was performed with 5 mL of water for injection. The administrations were made until 100% granulation of lesion, the closure of the lesion by grafting, or when a maximum of 8 weeks of treatment was attained.
# Patients belonging to group 3 received the drug (75 μg/dose) three times a week, during the first week, by intralesional route. From the second week onward, the treatment continued with a dose of 225 μg, once a week. The treatment period was 8 weeks, although it was shorter if the complete closure of the lesion occurred earlier or if the ulcer reached a size smaller than 1 cm^2.
# The formulated product was lyophilized in vials containing 25 μg or 75 μg of the active pharmaceutical ingredient. The composition also contained pharmaceutically acceptable excipients, such as stabilizers and pH regulators.
# Patients in all three groups continued receiving conventional therapy, which was performed according to the DFU treatment standards established by the National Angiology Group of Cuba. This consists of: offloading of the lesion, metabolic control of the underlying disease with insulin (which replaces oral hypoglycemic agents), washing of the lesion with saline solution and mild soap substances, debridement, application of sterile dressings with gauze bandage, and antimicrobials, depending on the type of infectious germ present in the lesion.
# The area of the DFU and the percentage of granulation were measured by a commercial system created for these purposes (Visitrak™, Smith & Nephew), which consists of grid transparent films and a device to measure the lesion by planimetry. This system has been previously validated (Sugama J, et al. J Clin Nurs 2007; 16 (7): 1265-1269). Using a permanent marker, the tracing of the contours of the lesion and the granulated regions, on the grid transparent film, was conducted.
# [6] = 2.5 μg once a week plus conventional therapy, n = 10, between 8 and 12 weeks
# [7] = 25 μg once a week plus conventional therapy, n = 15, between 8 and 12 weeks
# [8] = 50 μg once a week plus conventional therapy, n = 15, between 8 and 12 weeks
# [9] = 75 μg once a week plus conventional therapy, n = 20, between 8 and 12 weeks
# [10] = 25 μg three times a week then once a week, n = 10
# [11] = 50 μg three times a week then once a week, n = 13, at 3 weeks
# [12] = 75 μg three times a week then once a week, n = 18
# [13] = Control Group: 75 μg three times a week for 8 weeks, n = 93, at 3 weeks
# [14] = Control Group: 75 μg three times a week for 8 weeks, n = 93
# [15] = Group 1: 75 μg/dose three times a week, n = 45
# [16] = Group 2: 25 μg/dose three times a week intralesional, n = 45, at 3 weeks
# [17] = Group 2: 25 μg/dose three times a week, n = 45
# [18] = Group 2: 25 μg/dose three times a week, n = 45, end of treatment
# [19] = Group 3: 75 μg three times a week first week, then 225 μg once a week, n = 25
# [20] = Group 3: 75 μg three times a week first week, then 225 μg once a week, n = 25, end of treatment
# [21] = Group 3: 75 μg three times a week in first week, then 225 μg once a week, n = 25, at 3 weeks
substance,measurement,setting,value
recombinant human Epidermal Growth Factor [rhEGF],Amount of rhEGF remaining in the area of the ulcer,[1]; 25 μg dose,about 19 μg
same,AUC,[1]; 25 μg dose,85.1 ± 50.2 pg·h/mL
same,t½,[1]; 25 μg dose,51 ± 46.8 min
same,Amount of rhEGF remaining in the area of the ulcer,[1]; 75 μg dose,~58 µg
same,AUC,[1]; 75 μg dose,197.8 ± 73.9 pg·h/mL
same,t½,[1]; 75 μg dose,39.6 ± 10.8 min
same,Amount of rhEGF remaining in the area of the ulcer,[1]; 225 μg dose,around 63 μg
same,AUC,[1]; 225 μg dose,288.6 ± 89.4 pg·h/mL
same,t½,[1]; 225 μg dose,45 ± 12.6 min
same,Plasma rhEGF value after two hours of sample collection,"[1]; independently of the dose received (25, 75, 225 μg)",returned to baseline levels
same,Reduction of amputation rates,DFU,≥ 70%
same,"Lesion closure, Patient A","patients with DFU [2]; Patient A, 10 cm^2 superficial lesion, after said time",complete closure of the lesion was attained
same,"Time to closure of the lesion after the first application, Patient B","patients with DFU [2]; Patient B, 7 cm^2 deep lesion",9 weeks
same,"Granulation response, Patient B","patients with DFU [2]; Patient B, 7 cm^2 deep lesion, after said time",complete granulation response was obtained
same,Closure of the Lesion No (%),[3]; [6],(40%)
same,"Closure of the Lesion No, number of patients",[3]; [6],4
same,"Closure of the Lesion Yes, number of patients","[3]; 2.5 μg once a week plus conventional therapy, n = 10, between 8 and 12 weeks after commencement",6
same,Closure of the Lesion No (%),[3]; [7],(33%)
same,Closure of the Lesion Yes (%),[3]; [7],(67%)
same,Closure of the Lesion No (%),[3]; [8],(40%)
same,"Closure of the Lesion No, number of patients",[3]; [8],6
same,"Closure of the Lesion Yes, number of patients",[3]; [8],9
same,"Closure of the Lesion No, number of patients",[3]; [9],4
same,Closure of the Lesion Yes (%),[3]; [9],(80%)
same,"Closure of the Lesion Yes, number of patients",[3]; [9],16
same,Closure of the lesion (%),[4]; 2.5 μg group,57%
same,"Closure of the lesion, number of patients",[4]; 2.5 μg group,4
same,Objective granulation response (%),"[4]; 2.5 μg three times a week then once a week, n = 7, at 3 weeks",(57%)
same,Complete granulation response (%),"[4]; 2.5 μg three times a week then once a week, n = 7",(71%)
same,"Objective granulation response, number of patients","[4]; 2.5 μg three times a week until no amputation criterion, then once a week, n = 7, ≥75% of lesion area granulated at 3 weeks",4
same,"Objective granulation response, number of patients","[4]; 25 μg three times a week then once a week, n = 10, at 3 weeks",6
same,Complete granulation response (%),[4]; [10],(70%)
same,"Complete granulation response, number of patients",[4]; [10],7
same,Closure of the lesion (%),[4]; 50 μg group,69%
same,"Closure of the lesion, number of patients",[4]; 50 μg group,9
same,Objective granulation response (%),[4]; [11],(61%)
same,"Objective granulation response, number of patients",[4]; [11],8
same,Complete granulation response (%),"[4]; 50 μg three times a week then once a week, n = 13",(77%)
same,Closure of the lesion (%),[4]; 75 μg group,72%
same,Objective granulation response (%),"[4]; 75 μg three times a week then once a week, n = 18, at 3 weeks",(72%)
same,Complete granulation response (%),[4]; [12],(83%)
same,"Complete granulation response, number of patients",[4]; [12],15
same,Objective granulation response (%),[4]; [13],(77%)
same,"Objective granulation response, number of patients",[4]; [13],72
same,Complete granulation response (%),[4]; [14],(85%)
same,"Complete granulation response, number of patients",[4]; [14],79
same,Closure of the lesion (% of the patients),"[4]; control group, 75 μg three administrations per week",81%
same,Reduction in the risk of amputation,[4]; new treatment schedule (three times a week then once a week) along with conventional therapy,more than 80%
same,Amputations,[4]; the four groups that differed in the rhEGF dose and the control group,below 12%
same,Granulation Objective Response CR*+PR* (%),"patients with DFU [5]; Group 1: 75 μg/dose three times a week intralesional, n = 45, at 3 weeks",75%
same,"Granulation Objective Response CR*+PR*, number of patients","patients with DFU [5]; Group 1: 75 μg/dose three times a week intralesional, n = 45, at 3 weeks (>50% of lesion area covered by granulation tissue)",34
same,"Amputations, number of patients",patients with DFU [5]; [15],6
same,"Lesion Closure, number of patients",patients with DFU [5]; [15],34
same,Granulation Complete Response CR (%),"patients with DFU [5]; Group 1: 75 μg/dose three times a week, n = 45, end of treatment",80%
same,"Granulation Complete Response CR, number of patients","patients with DFU [5]; Group 1: 75 μg/dose three times a week, n = 45, end of treatment (100% of lesion area granulated)",36
same,Granulation Objective Response CR*+PR* (%),patients with DFU [5]; [16],64%
same,"Granulation Objective Response CR*+PR*, number of patients",patients with DFU [5]; [16],29
same,Amputations (%),patients with DFU [5]; [17],22%
same,"Lesion Closure, number of patients",patients with DFU [5]; [17],27
same,Granulation Complete Response CR (%),patients with DFU [5]; [18],69%
same,"Granulation Complete Response CR, number of patients",patients with DFU [5]; [18],31
same,"Amputations, number of patients",patients with DFU [5]; [19],3
same,"Lesion Closure, number of patients",patients with DFU [5]; [19],18
same,Granulation Complete Response CR (%),patients with DFU [5]; [20],76%
same,"Granulation Complete Response CR, number of patients",patients with DFU [5]; [20],19
same,Granulation Objective Response CR*+PR* (%),patients with DFU [5]; [21],68%
same,"Granulation Objective Response CR*+PR*, number of patients",patients with DFU [5]; [21],17
